Experimental data published in patent US10770169B2, “Method of providing a treatment to a subject based on a dynamic pathway map” (THE REGENTS OF THE UNIVERSITY OF CALIFORNIA, priority 2010, dated 2020).
Where two headings read alike, the source gives them in different places.

Tests used:
[1] = system: panel of 55 breast cancer cell lines; assay: Cell growth inhibition assay (Cell Titer Glo, 72 h, 9 doses; GI50, TGI, LC50); assay type: cell-based, human; settings: Homo sapiens, read-out: GI50 (converted)
[2] = system: breast cancer cell lines with aberrant vs normal copy number; assay: Association of recurrent copy number changes and response (t-test on GI50); assay type: cell-based, human; settings: FDR p<0.2
Description: We used a t-test to assess the association between recurrent copy number changes (at 8q24 (MYC), 11q13 (CCND1), 20q13 (STK15/AURKA)) and drug sensitivity. We combined into a single group cell lines with low or no amplification and compared them to cell lines with high amplification. […] Cell lines for which the GI50 was equal to the maximum concentration tested were omitted from analysis. We omitted compounds where any group had fewer than five samples.

CCC1=C[C@@H]2CN(C1)Cc1c([nH]c3ccccc13)[C@@](C(=O)OC)(c1cc3c(cc1OC)N(C)[C@H]1[C@@](O)(C(=O)OC)[C@H](OC(C)=O)[C@]4(CC)C=CCN5CC[C@]31[C@@H]54)C2 [Vinorelbine]
GI50 ([1]; 600MPE cell line, censored GI50 values): 5130 nM
GI50 ([1]; AU565, AU565 cell line, censored GI50 values): 8.71 nM
GI50 ([1]; AU565, cell line AU565): 8.71 nM
GI50 ([1]; BT-474, BT474 cell line, censored GI50 values): 47.9 nM
GI50 ([1]; BT-474, cell line BT474): 47.9 nM
GI50 ([1]; BT-483, BT483 cell line, censored GI50 values): 7.24 nM
GI50 ([1]; BT-483, cell line BT483): 7.24 nM
GI50 ([1]; BT-549, BT549 cell line, censored GI50 values): 9.55 nM
GI50 ([1]; BT-549, cell line BT549): 9.55 nM
GI50 ([1]; CAMA-1, CAMA1 cell line, censored GI50 values): 13.2 nM
GI50 ([1]; CAMA-1, cell line CAMA1): 13.2 nM
GI50 ([1]; HCC38, HCC38 cell line, censored GI50 values): 11.5 nM
GI50 ([1]; HCC38, cell line HCC38): 11.5 nM
GI50 ([1]; HCC70, HCC70 cell line, censored GI50 values): 7.41 nM
GI50 ([1]; HCC70, cell line HCC70): 7.41 nM
GI50 ([1]; HCC202, HCC202 cell line, censored GI50 values): 13.5 nM
GI50 ([1]; HCC202, cell line HCC202): 13.5 nM
GI50 ([1]; HCC1143, HCC1143 cell line, censored GI50 values): 263 nM
GI50 ([1]; HCC1143, cell line HCC1143): 263 nM
GI50 ([1]; HCC1187, HCC1187 cell line, censored GI50 values): 26.9 nM
GI50 ([1]; HCC1187, cell line HCC1187): 26.9 nM
GI50 ([1]; HCC1395, HCC1395 cell line, censored GI50 values): 3.55 nM
GI50 ([1]; HCC1395, cell line HCC1395): 3.55 nM
GI50 ([1]; HCC1419, HCC1419 cell line, censored GI50 values): 355 nM
GI50 ([1]; HCC1419, cell line HCC1419): 355 nM
GI50 ([1]; HCC1428, HCC1428 cell line, censored GI50 values): 2190 nM
GI50 ([1]; HCC1428, cell line HCC1428): 2190 nM
GI50 ([1]; HCC1500, HCC1500 cell line, censored GI50 values): 11 nM
GI50 ([1]; HCC1500, cell line HCC1500): 11 nM
GI50 ([1]; HCC1806, HCC1806 cell line, censored GI50 values): 11.7 nM
GI50 ([1]; HCC1806, cell line HCC1806): 11.7 nM
GI50 ([1]; HCC1937, HCC1937 cell line, censored GI50 values): 224 nM
GI50 ([1]; HCC1937, cell line HCC1937): 224 nM
GI50 ([1]; HCC1954, HCC1954 cell line, censored GI50 values): 3.55 nM
GI50 ([1]; HCC1954, cell line HCC1954): 3.55 nM
GI50 ([1]; HCC2185 cell line, censored GI50 values): 26300 nM
GI50 ([1]; HCC3153 cell line, censored GI50 values): 51.3 nM
GI50 ([1]; LY2 cell line, censored GI50 values): 13.2 nM
GI50 ([1]; MCF7, MCF7 cell line, censored GI50 values): 16.6 nM
GI50 ([1]; MCF7, cell line MCF7): 16.6 nM
GI50 ([1]; MDA-MB-134-VI, MDAMB134VI cell line, censored GI50 values): 13.5 nM
GI50 ([1]; MDA-MB-157, MDAMB157 cell line, censored GI50 values): 12.9 nM
GI50 ([1]; MDA-MB-157, cell line MDAMB157): 12.9 nM
GI50 ([1]; MDA-MB-175-VII, MDAMB175VII cell line, censored GI50 values): 38.9 nM
GI50 ([1]; MDA-MB-231, MDAMB231 cell line, censored GI50 values): 5.13 nM
GI50 ([1]; MDA-MB-231, cell line MDAMB231): 5.13 nM
GI50 ([1]; MDA-MB-361, MDAMB361 cell line, censored GI50 values): 6.61 nM
GI50 ([1]; MDA-MB-361, cell line MDAMB361): 6.61 nM
GI50 ([1]; MDA-MB-415, MDAMB415 cell line, censored GI50 values): 18.2 nM
GI50 ([1]; MDA-MB-415, cell line MDAMB415): 18.2 nM
GI50 ([1]; MDA-MB-436, MDAMB436 cell line, censored GI50 values): 26.9 nM
GI50 ([1]; MDA-MB-436, cell line MDAMB436): 26.9 nM
GI50 ([1]; MDA-MB-453, MDAMB453 cell line, censored GI50 values): 3.8 nM
GI50 ([1]; MDA-MB-453, cell line MDAMB453): 3.8 nM
GI50 ([1]; MDA-MB-468, MDAMB468 cell line, censored GI50 values): 10.7 nM
GI50 ([1]; MDA-MB-468, cell line MDAMB468): 10.7 nM
GI50 ([1]; SK-BR-3, SKBR3 cell line, censored GI50 values): 17.4 nM
GI50 ([1]; SK-BR-3, cell line SKBR3): 17.4 nM
GI50 ([1]; SUM52PE, SUM52PE cell line, censored GI50 values): 5.37 nM
GI50 ([1]; SUM52PE, cell line SUM52PE): 5.37 nM
GI50 ([1]; SUM149PT, SUM149PT cell line, censored GI50 values): 12.3 nM
GI50 ([1]; SUM149PT, cell line SUM149PT): 12.3 nM
GI50 ([1]; SUM185PE, SUM185PE cell line, censored GI50 values): 8.32 nM
GI50 ([1]; SUM185PE, cell line SUM185PE): 8.32 nM
GI50 ([1]; SUM1315MO2, SUM1315MO2 cell line, censored GI50 values): 2.24 nM
GI50 ([1]; SUM-159-PT, SUM159PT cell line, censored GI50 values): 12.3 nM
GI50 ([1]; SUM-159-PT, cell line SUM159PT): 12.3 nM
GI50 ([1]; T47D, T47D cell line, censored GI50 values): 4680 nM
GI50 ([1]; T47D, cell line T47D): 4680 nM
GI50 ([1]; UACC-812, UACC812 cell line, censored GI50 values): 74.1 nM
GI50 ([1]; UACC-812, cell line UACC812): 74.1 nM
GI50 ([1]; UACC-893, UACC893 cell line, censored GI50 values): 11 nM
GI50 ([1]; UACC-893, cell line UACC893): 11 nM
GI50 ([1]; ZR-75-1, ZR751 cell line, censored GI50 values): 44.7 nM
GI50 ([1]; ZR-75-1, cell line ZR751): 44.7 nM
GI50 ([1]; ZR-75B, ZR75B cell line, censored GI50 values): 8.91 nM
GI50 ([1]; ZR-75B, cell line ZR75B): 8.91 nM
GI50 ([1]; cell line 600MPE): 5130 nM
GI50 ([1]; cell line HCC2185): 26300 nM
GI50 ([1]; cell line HCC3153): 51.3 nM
GI50 ([1]; cell line LY2): 13.2 nM
GI50 ([1]; cell line MDAMB134V): 13.5 nM
GI50 ([1]; cell line MDAMB175V): 38.9 nM
GI50 ([1]; cell line SUM1315MO): 2.24 nM
association of response with homozygous deletion at 9p21 (CDKN2A) [2]: associated with response
